How the values were obtained:
[1] = biological target: T1, ALDH2 (Mus musculus, UniProt P47738); assay: ALDH2 activity of muscle tissue in PAD mice; format: in vivo; settings: osmotic pump for 28 days
T1 construct: In this study we have also determined the ALDH2 activity in muscle tissue; from tissue; host or cells: skeletal muscle of WT mice with femoral artery occlusion
T1 sequence (P47738 20-519): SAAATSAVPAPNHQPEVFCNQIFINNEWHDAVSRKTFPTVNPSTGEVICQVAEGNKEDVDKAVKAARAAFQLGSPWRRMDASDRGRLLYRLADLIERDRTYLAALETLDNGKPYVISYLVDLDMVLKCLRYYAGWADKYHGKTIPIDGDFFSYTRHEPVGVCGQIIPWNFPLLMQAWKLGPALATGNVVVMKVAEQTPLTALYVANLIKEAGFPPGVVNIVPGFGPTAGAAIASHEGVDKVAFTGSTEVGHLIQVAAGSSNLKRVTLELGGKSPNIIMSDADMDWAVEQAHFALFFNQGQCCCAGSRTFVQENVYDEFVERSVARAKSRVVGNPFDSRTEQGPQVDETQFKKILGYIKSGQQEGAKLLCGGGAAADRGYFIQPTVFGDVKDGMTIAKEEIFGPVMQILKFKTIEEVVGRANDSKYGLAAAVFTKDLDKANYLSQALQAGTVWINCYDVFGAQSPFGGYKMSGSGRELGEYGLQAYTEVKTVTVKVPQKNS
Description: (§1) The animals, WT mice age 18-22 weeks, were anesthetized with an intraperitoneal (IP) injection of esketamine (100 mg/ml) dose 80-100 mg/kg and xylazine (20 mg/ml) dose 4-6 mg/kg. Hair was entirely removed from the surgical area and a longitudinal incision was made beginning at the inguinal crease along the femoral vessels. The connective tissue sheet between the femoral artery and vein was then carefully dissected and an opening between the femoral artery and vein was made. Artery ligation thread was then used to occlude the femoral artery using triple surgical knots. The incision was then closed and the animals were administered a single dose of buprenorphine (0.1 mg/kg) subcutaneously to control ischemic pain.
(§2) The animals under permanent femoral artery occlusion at day zero, were treated with ALDH2 activators, Alda-1 and AC112, via osmotic pump for 28 days. The effects of the compounds of the present invention on functional capacity were assessed in mice using treadmill exercise in a metabolic chamber.
In this study we have also determined the ALDH2 activity in muscle tissue.

[2] = test system: PAD wild type mice; assay: Limb ischemia model for peripheral arterial disease (PAD); format: in vivo; settings: osmotic pump for 28 days
Description: Mice are anesthetized and hair is entirely removed from the surgical area. A longitudinal incision is inguinal crease along the femoral vessels and the connective tissue sheet between the femoral artery and vein is carefully dissected. An opening between the femoral artery and vein is made and the femoral artery is occluded using triple surgical knots. The incision is then closed.
The animals under permanent femoral artery occlusion are treated with compounds of formula (I) and the effects of the compounds on functional capacity is assessed in mice using treadmill exercise in a metabolic chamber.
The limb ischemia-murine animal model was utilized as a surrogated model for peripheral arterial disease as described in Nature Protocols, 4, 1737-1748 (2009). (Limbourg, A., et. als., Evaluation of postnatal arteriogenesis and angiogenesis in a mouse model of hind-limb ischemia, Nature Protocols, 4, 1737-1748 (2009)). All experiments were run according to national and institutional regulations concerning the use of animals for research purposes and permissions to carry out experiments have to be obtained.
as §1, §2

[3] = biological target: T2, ALDH2 (Homo sapiens, UniProt P05091); assay: ALDH2 activity with 20 μM of the compound (Table 3); format: biochemical; settings: 20 μM compound
T2 construct: His-tag (N); made in house; host or cells: E. coli BL21
T2 sequence (P05091 18-517): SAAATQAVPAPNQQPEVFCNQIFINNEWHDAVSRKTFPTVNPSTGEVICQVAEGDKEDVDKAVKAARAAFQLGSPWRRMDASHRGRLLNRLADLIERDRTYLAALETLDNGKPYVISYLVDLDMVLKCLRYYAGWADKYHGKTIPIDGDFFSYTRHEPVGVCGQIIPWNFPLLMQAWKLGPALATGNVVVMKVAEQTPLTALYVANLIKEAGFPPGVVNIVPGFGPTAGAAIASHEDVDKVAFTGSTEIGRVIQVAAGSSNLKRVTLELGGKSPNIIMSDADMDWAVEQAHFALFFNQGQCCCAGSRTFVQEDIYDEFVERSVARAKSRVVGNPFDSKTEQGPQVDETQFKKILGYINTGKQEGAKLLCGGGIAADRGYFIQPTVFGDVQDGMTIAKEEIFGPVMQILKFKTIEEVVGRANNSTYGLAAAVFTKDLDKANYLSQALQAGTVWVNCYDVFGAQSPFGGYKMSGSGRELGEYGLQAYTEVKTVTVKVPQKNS
Summary of the method: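 Compound was tested at 20 μM. ALDH2 oxidation of acetaldehyde with NAD+ cofactor was followed spectrophotometrically as NADH accumulation at 340 nm. Activity is expressed relative to the enzyme's baseline activity, taken as 100%.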

COc1ccc(CNC(=O)c2cc(-c3ncccc3CO)ccc2OCC(C)C)cc1F [AC112]
ALDH2 activity of muscle tissue [1]: increased the ALDH2 activity of muscle tissue | pain threshold [2]: improve pain threshold | skeletal muscle resistance to fatigue (contractility measured ex vivo) [2]: improve the skeletal muscle resistance to fatigue | PAD-induced skeletal muscle atrophy ([2]; WT mice): minimizes PAD-induced skeletal muscle atrophy | running distance ([2]; treadmill): improve | running time ([2]; treadmill): improve | activity at 20 µM [3]: > 250%

Reference: patent US9879036B2, “Mitochondrial aldehyde dehydrogenase-2 binding compounds and methods of use thereof” (Aviv Therapeutics, Inc., priority 2014, dated 2018)
